Where a SMILES comes first, the peptide text is derived from it. Bridges are numbered along the chain shown (N, C = ends).
Experiments:
[1] = target: T1, HTTQ23-HAP40 (Homo sapiens, UniProt P23610+P42858, INS38QQ); test: Differential hydrogen-deuterium exchange mass spectrometry (ΔHDX-MS); format: binding; conditions: 15 μM protein, 1:4 macrocycle, labeling 0.5, 5, 30 mins at 20 °C
T1 construct: Full-length wildtype HTT with a polyQ tract of 23 glutamines; FLAG; made in house; host or cells: Sf9 insect cells (baculovirus)
Protocol: Samples were labeled at 3 timepoints (0.5, 5, 30 mins) with 87% (v/v) deuteration buffer (10 mM Phosphate Buffer pD 7.5, 150 mM NaCl) at 20 °C. The HDX reaction was quenched at 50% (v/v) with 7.5 M Guanidine-HCl, 0.5 M TCEP, 100 mM Phosphate Buffer pH 2.5 at 0 °C for 2 min and subsequently diluted with an equal volume of quench dilution buffer (100 mM Phosphate Buffer, pH 2.5). The protein was digested using 1:1 Nepenthesin(II)-Pepsin (Affipro) followed by desalting (ACQUITY UPLC BEH C18 VanGuard Pre-column, Waters) and reverse-phase separation (ACQUITY UPLC BEH C18 Column, Waters). Liquid handling was achieved using the ACQUITY UPLC M-Class System with HDX Technology (Waters) and PAL3 Robotic Tool Change (LEAP, Trajan Scientific and Medical). The peptides were then analyzed using the Select Series Cyclic IMS mass spectrometer (Q-IMS-TOF, Waters). Peptide identification and HDX data analysis were achieved using ProteinLynx Global Server 3.0.3 (Waters) and DynamX 3.0 (Waters), respectively. Microsoft Excel and PyMOL 2.5 were used for visual presentation of HDX data. An AlphaFold 3 model was used to incorporate missing loops for depicting HTTQ23 and HTTQ23-HAP40. The peptide sequence coverage for HTT and HAP40 was 56.6–76.8% and 77.4–82%, respectively (Supplementary Figure 3–5). […]

[2] = tested on: HAP40; test: Macrocycle precipitation (MP), co-purification of HAP40, LC-MS/MS; format: binding, human; conditions: HEK293T lysate versus HTT CRISPR knockout line
Description: To assess macrocycle selectivity and identify potential HTT interacting proteins, we performed LC-MS/MS analysis of the proteins in the MP eluates. To control for non-specific binding, we performed MPs using lysates from a HTT CRISPR knockout cell line ([Jung et al., 2021]). Across all macrocycles, HTT emerged as the most enriched protein after background subtraction (Figure 5b). Given we performed affinity purification using macrocycles targeting distinct HTT surfaces, we hypothesized that any real HTT protein binder might be co-purified with two or more macrocycles. […] In contrast, HAP40 was not enriched by HL5, consistent with its specificity for apo HTT.
Macrocycles were pre-conjugated to streptavidin beads (Cytiva, 17-5113-01) by incubating with a 30 μL slurry of beads per macrocycle purification (MP) in Lysis Buffer (10 mM Tris-HCl, pH 7.9, 150 mM NaCl, 0.1% NP-40, 1:500 protease inhibitor cocktail (Sigma-Aldrich), 1:1,000 benzonase nuclease, and 2 mM MgCl2) for 1 hour at 4°C. A concentration of 1.25 μM macrocycle was used for conjugation. After incubation, beads were washed three times with 500 μL Lysis Buffer to remove unbound macrocycles and resuspended in 500 μL of lysate at 4 mg/mL protein concentration.
Cells were harvested by centrifugation at 1,500 rpm for 5 minutes, washed twice with PBS, and snap-frozen. Cell pellets were then resuspended in 500 μL of Lysis Buffer (as described above) and incubated on an end-over-end rotator at 4°C for 1 hour. Lysates were clarified by centrifugation at 20,000g for 15 minutes at 4°C, and the supernatant was transferred to fresh 1.5 mL Eppendorf tubes. Protein concentration was determined by BCA assay (Thermo Fisher Scientific, 23225), yielding approximately 4 mg of protein on average. Lysates were diluted to a final concentration of 4 mg/mL for use, providing […] of total protein per MP.
Macrocycle-conjugated beads were incubated with 2 mg of lysate in Lysis Buffer for 1 hour at 4°C with rotation. After incubation, beads were collected by centrifugation at 3,000 rpm, and the flow-through was saved for analysis. Beads were then washed sequentially with 1 mL of Wash Buffer 1 (10 mM Tris-HCl, pH 7.9, 100 mM NaCl, 0.1% NP-40) and twice with Wash Buffer 2 (Wash Buffer 1 without detergent). Lastly, bound proteins were eluted from the beads with 200 μL of 0.5 M NH4OH and flash-frozen in liquid nitrogen.
All sample preparation, LC MS/MS data collection, and MS data searches were carried out at the SPARC BioCentre at The Hospital for Sick Children (Toronto, ON, Canada). […] Samples were analyzed by liquid chromatography tandem mass spectrometry (LC-MS/MS) using an EASY-nanoLC 1200 system with a 1 h analysis and an Orbitrap Fusion™ Lumos™ Tribrid™ Mass Spectrometer (Thermo Fisher Scientific). […]

T1 sequence (P42858 with tags, fused parts or gaps INS38QQ): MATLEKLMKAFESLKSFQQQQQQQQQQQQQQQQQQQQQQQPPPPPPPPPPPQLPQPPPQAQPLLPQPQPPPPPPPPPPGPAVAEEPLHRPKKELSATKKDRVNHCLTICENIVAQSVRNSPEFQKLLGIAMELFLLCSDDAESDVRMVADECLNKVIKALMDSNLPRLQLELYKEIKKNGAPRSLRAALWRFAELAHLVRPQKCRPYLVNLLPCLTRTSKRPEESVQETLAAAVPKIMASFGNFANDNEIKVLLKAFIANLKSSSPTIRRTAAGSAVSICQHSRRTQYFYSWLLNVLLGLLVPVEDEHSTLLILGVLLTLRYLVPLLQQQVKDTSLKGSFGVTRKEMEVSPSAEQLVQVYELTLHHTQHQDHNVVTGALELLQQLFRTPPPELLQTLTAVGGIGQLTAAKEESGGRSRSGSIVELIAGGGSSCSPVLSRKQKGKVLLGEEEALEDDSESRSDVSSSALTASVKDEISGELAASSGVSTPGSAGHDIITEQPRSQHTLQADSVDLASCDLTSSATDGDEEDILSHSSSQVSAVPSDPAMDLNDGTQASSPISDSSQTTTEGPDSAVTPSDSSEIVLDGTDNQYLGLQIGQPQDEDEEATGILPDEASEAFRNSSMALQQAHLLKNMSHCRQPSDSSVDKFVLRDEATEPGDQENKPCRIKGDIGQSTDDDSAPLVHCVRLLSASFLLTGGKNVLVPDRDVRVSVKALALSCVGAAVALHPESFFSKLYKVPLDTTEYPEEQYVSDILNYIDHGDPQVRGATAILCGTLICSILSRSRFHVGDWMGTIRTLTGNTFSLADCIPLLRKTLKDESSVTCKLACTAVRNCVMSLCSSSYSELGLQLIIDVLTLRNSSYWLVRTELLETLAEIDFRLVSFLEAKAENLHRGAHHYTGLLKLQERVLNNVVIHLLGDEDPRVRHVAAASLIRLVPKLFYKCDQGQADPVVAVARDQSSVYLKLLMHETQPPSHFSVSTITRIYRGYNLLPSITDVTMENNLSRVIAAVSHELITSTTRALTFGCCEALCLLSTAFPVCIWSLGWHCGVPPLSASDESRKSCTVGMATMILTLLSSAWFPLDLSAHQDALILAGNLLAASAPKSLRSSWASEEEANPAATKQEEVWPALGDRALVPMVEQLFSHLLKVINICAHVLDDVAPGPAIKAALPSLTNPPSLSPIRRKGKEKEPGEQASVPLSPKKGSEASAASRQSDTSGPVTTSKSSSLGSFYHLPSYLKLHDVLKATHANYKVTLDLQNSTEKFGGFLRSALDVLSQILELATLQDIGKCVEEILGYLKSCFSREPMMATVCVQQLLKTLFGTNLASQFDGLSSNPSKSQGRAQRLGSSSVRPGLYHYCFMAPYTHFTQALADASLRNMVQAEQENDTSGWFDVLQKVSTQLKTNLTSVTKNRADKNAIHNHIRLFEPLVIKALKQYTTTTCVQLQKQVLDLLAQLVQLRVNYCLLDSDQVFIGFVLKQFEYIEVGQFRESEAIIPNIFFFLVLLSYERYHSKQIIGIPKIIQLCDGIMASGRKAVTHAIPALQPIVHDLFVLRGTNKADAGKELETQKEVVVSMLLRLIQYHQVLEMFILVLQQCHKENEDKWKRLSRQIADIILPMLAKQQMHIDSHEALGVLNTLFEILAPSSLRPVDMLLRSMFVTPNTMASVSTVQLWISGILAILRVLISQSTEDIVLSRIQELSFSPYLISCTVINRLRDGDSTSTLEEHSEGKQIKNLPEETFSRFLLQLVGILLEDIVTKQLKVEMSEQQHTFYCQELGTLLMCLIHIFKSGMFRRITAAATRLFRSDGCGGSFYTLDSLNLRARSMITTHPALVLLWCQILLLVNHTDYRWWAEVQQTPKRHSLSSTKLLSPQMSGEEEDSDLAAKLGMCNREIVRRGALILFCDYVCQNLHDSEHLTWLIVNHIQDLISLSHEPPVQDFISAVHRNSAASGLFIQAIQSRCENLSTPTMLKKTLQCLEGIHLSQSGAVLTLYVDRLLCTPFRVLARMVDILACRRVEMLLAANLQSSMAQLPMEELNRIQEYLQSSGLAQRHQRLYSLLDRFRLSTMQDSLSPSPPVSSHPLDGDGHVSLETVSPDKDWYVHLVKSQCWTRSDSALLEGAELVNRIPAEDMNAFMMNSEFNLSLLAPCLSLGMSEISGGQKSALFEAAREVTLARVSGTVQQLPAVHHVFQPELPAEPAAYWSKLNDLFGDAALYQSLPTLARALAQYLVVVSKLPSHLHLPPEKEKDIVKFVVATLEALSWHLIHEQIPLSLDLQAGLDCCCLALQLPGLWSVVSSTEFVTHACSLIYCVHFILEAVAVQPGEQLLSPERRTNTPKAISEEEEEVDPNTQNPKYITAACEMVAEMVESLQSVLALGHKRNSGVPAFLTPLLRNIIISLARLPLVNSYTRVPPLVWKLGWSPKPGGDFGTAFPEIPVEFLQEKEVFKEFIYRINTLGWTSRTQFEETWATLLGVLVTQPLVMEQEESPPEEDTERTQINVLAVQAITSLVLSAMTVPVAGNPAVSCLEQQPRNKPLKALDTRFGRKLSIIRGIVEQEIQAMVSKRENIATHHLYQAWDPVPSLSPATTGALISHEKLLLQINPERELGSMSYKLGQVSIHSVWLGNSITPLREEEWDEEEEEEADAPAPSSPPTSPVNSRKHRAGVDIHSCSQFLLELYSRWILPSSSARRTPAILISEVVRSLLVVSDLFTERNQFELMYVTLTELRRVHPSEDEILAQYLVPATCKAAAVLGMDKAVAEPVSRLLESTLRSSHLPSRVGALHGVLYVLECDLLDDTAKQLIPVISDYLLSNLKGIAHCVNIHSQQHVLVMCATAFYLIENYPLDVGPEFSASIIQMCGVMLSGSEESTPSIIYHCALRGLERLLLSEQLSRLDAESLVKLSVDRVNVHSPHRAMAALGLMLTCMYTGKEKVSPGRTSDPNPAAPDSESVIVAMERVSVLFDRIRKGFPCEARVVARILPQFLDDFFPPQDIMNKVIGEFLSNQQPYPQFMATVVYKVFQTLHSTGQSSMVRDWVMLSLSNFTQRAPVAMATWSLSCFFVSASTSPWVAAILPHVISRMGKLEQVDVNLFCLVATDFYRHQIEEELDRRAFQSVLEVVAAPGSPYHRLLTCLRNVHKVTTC
T1 sequence (P23610 whole entry, stated change not applied): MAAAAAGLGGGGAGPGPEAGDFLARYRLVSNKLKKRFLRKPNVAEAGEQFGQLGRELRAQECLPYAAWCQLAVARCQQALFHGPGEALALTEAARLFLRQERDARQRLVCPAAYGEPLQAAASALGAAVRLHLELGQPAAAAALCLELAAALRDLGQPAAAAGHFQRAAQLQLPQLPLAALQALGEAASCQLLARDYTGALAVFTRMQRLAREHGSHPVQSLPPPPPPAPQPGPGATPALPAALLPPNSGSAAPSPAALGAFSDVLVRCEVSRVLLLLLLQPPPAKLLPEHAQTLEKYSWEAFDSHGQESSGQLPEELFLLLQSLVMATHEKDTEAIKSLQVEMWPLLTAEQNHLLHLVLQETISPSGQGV

CC[C@H](C)[C@@H]1NC(=O)[C@H](Cc2c[nH]c3ccccc23)NC(=O)[C@@H]2CCCN2C(=O)[C@H](C)NC(=O)[C@H](C(C)C)NC(=O)[C@H](CCC(N)=O)NC(=O)[C@H](Cc2ccccc2)NC(=O)[C@H](Cc2c[nH]cn2)NC(=O)[C@H]([C@@H](C)O)NC(=O)[C@H](Cc2ccc(O)cc2)NC(=O)CSC[C@@H](C(N)=O)NC(=O)[C@H](CC(C)C)NC(=O)[C@H](CO)NC(=O)[C@H](CCC(N)=O)NC1=O [HL5] ({CH2CO}-YTHFQVAPWIQSLC-NH2; thioether N-14; C-terminus assumed)
Cumulative ΔHDX of HTTQ23-HAP40 on incubation with macrocycle [1]: no statistically significant cumulative HDX differences | Enrichment of HAP40 in macrocycle pulldowns [2]: not enriched
